Consider six molecules from US12116370B2, “Condensed heterocyclic compound having a bridgehead nitrogen atom or salt thereof, agricultural or horticultural insecticide comprising the compound, and method for using the insecticide” (Nihon Nohyaku Co., Ltd., priority 2019, dated 2024).

Each structure is given as a SMILES string.

Type in all cases: in vivo
In experiment [1] the test system is adults of Ctenocephalides felis. Put plainly: Assay for oral parasiticidal activity against adults of Ctenocephalides felis. Particulars: read-out: mortality rate. How it is done:
Newly-emerged adults of C. felis were placed into test cages (10 adults per test cage). DMSO diluted solutions of various compounds of the present invention were added to aliquots of bovine blood at the final concentration of 50 ppm and orally administered to the adults of C. felis using a feeder. The mortality rate was examined on the following day. Aberrant adults were regarded as the dead.

In a further experiment the test system is Plutella xylostella. Put plainly: Insecticidal test on Plutella xylostella. Conditions: in Brassica rapa, 144 h, read-out: insecticidal efficacy (mortality rate) activity level. From the text: Adults of P. xylostella were released onto Chinese cabbage seedlings and allowed to lay eggs thereon. At 2 days after the release of the adults, the Chinese cabbage seedlings with laid eggs were dipped for about 30 seconds in agrochemical formulations diluted to 500 ppm, each of which contained a different kind of condensed heterocyclic compound having a bridgehead nitrogen atom represented by the general formula (1) of the present invention as an active ingredient. After air-dried, the seedlings were kept in a thermostatic chamber at 25° C. At 6 days after the dip treatment, the number of hatched larvae per plot was counted, the mortality rate of P. xylostella was calculated according to the formula shown below, and the insecticidal efficacy was evaluated according to the criteria of Test Example 1. This test was conducted in triplicate using 10 adults of P. xylostella per plot.

Experiment [2] has as its system L1 stage larvae of H. contortus. Nature of the experiment: Larval motility assay on Haemonchus contortus. Conditions: 96 h, 4 days, relative to DMSO only, read-out: percent motility inhibition. How it is done:
Dimethyl sulfoxide (DMSO) diluted solutions of various compounds of the present invention were added at the final concentration of 50 ppm to the wells of a 96-well plate containing a predetermined conditioned medium. Twenty L1 stage larvae of H. contortus were introduced into each well of the 96-well plate. The plate was allowed to stand for 4 days, and then larval motility was examined. The percent motility inhibition in the wells of each treatment was calculated relative to the wells of treatment with DMSO only.

The subject of the next experiment is Laodelphax striatellus. Nature of the experiment: Insecticidal test on Laodelphax striatellus. Conditions: in Oryza sativa, 192 h, read-out: insecticidal efficacy (corrected mortality rate) activity level. From the text: The condensed heterocyclic compounds having a bridgehead nitrogen atom represented by the general formula (1) of the present invention or salts thereof were separately dispersed in water and diluted to 500 ppm. Rice plant seedlings (variety: Nihonbare) were dipped in the agrochemical dispersions for 30 seconds. After air-dried, each seedling was put into a separate glass test tube and inoculated with ten 3rd-instar larvae of L. striatellus, and then the glass test tubes were capped with cotton plugs. At 8 days after the inoculation, the numbers of surviving larvae and dead larvae of L. striatellus were counted, the corrected mortality rate was calculated according to the formula shown below, and the insecticidal efficacy was evaluated according to the criteria of Test Example 1.

For experiment [3], the system named is L1 stage larvae of D. immitis. Put plainly: Larval motility assay on Dirofilaria immitis. Particulars: 72 h, 3 days, relative to DMSO only, read-out: percent motility inhibition. How it is done:
Five hundred L1 stage larvae of D. immitis were diluted in a predetermined conditioned medium and introduced into each well of a 96-well plate. DMSO diluted solutions of various compounds of the present invention were added at the final concentration of 50 ppm to the wells of the 96-well plate. The plate was allowed to stand for 3 days, and then larval motility was examined. The percent motility inhibition in the wells of each treatment was calculated relative to the wells of treatment with DMSO only.

Consider `CCS(=O)(=O)c1cc(/C=N/OCC(F)F)cnc1-c1nc2cc(C(F)(F)F)ccn2n1` [Compound 1-7], for which, in experiment [1], the mortality at 50 ppm was ≥ 50%. The mortality at 500 ppm in the experiment with Plutella xylostella and in the experiment with Laodelphax striatellus was 100% in each case. For the same molecule, the inhibition at 50 ppm in experiment [2] and in experiment [3] was ≥ 50% throughout.
In the case of `CCS(=O)(=O)c1ccc(/C=N/OCC(F)(F)F)nc1-c1nc2cc(C(F)(F)C(F)(F)F)ncn2n1` [Compound 2-42, 5-ethylsulfonyl-6-(7-pentafluoroethyl-[1,2,4]triazolo[1,5-c]pyridin-2-yl)picolinaldehyde O-(2,2,2-trifluoroethyl)oxime], the mortality at 500 ppm in the experiment on Plutella xylostella and in the experiment on Laodelphax striatellus was 100% each time.
`CCS(=O)(=O)c1cc(/C(=N/OCCSC)OC)cnc1-c1nc2cc(C(F)(F)F)ccn2n1` [Compound 3-1, methyl 5-ethylsulfonyl-N-(2-methylthioethoxy)-6-(7-(trifluoromethyl)-[1,2,4]triazolo[1,5-a]pyridin-2-yl)nicotinimidate]: the mortality at 500 ppm in the experiment on Plutella xylostella and in the experiment with Laodelphax striatellus was 100% each time.
On to `CCS(=O)(=O)c1cc(/C(Br)=N/OCCSC)cnc1-c1nc2cc(C(F)(F)F)ccn2n1` [Compound 3-19, 5-ethylsulfonyl-N-(2-methylthioethoxy)-6-(7-trifluoromethyl-[1,2,4]triazolo[1,5-a]pyridin-2-yl)nicotinimidoyl bromide], for which the mortality at 500 ppm with Plutella xylostella and with Laodelphax striatellus was 100% each time.
For the molecule `CCS(=O)(=O)c1cc(/C(=N/OCCSC)C2CC2)cnc1-c1nc2cc(C(F)(F)F)ccn2n1` [Compound 3-28], the mortality at 500 ppm with Plutella xylostella and with Laodelphax striatellus was 100% in each case.
For `CCS(=O)(=O)c1cc(/C(=N/OCCSC)c2ccccc2)cnc1-c1nc2cc(C(F)(F)F)ccn2n1` [Compound 3-46, (5-ethylsulfonyl-6-(7-trifluoromethyl-[1,2,4]triazolo[1,5-a]pyridin-2-yl)pyridin-3-yl)phenylmethanone O-(2-methylthioethyl)oxime], the mortality at 500 ppm in the experiment with Plutella xylostella and with Laodelphax striatellus was 100% throughout.
